# Results published in article PMC10167348, “Structural mechanisms of TRPM7 activation and inhibition” (Nature Communications, 2023).
# Legend:
# wild-type TRPM7 = molecular target: T1, wild-type TRPM7 (Mus musculus, UniProt Q923J1); assay: Whole-cell patch-clamp recordings in HEK 293T cells; format: cell-based; details: amplitude at +80 mV
# T1 construct: expressed in transfected cells; host or cells: HEK 293T
# Description: Patch-clamp experiments were performed as reported previously, with a few modifications[69],[70]. HEK 293T cells grown in 35-mm dishes to ~60% confluence were transiently transfected with Trpm7 cDNAs in the pIRES2-EGFP vector (2 µg/dish). Patch-clamp experiments were conducted 18–22 h after transfection with cells displaying EGFP fluorescence. Whole-cell currents were recorded using an EPC10 patch-clamp amplifier and PatchMaster software (Version V2x69, Harvard Bioscience). Voltages were corrected for a liquid junction potential of 10 mV. Currents were elicited by voltage ramps from –100 mV to +100 mV over 50 ms acquired at 0.5 Hz. The inward and outward current amplitudes were measured at –80 mV and +80 mV and were normalized to the cell size as pA/pF. The capacitance was measured using the automated capacitance cancellation function of EPC10. The standard extracellular solution contained 140 mM NaCl, 2.8 mM KCl, 1 mM CaCl2, 2 mM MgCl2, 10 mM HEPES-NaOH, and 11 mM glucose (all from Sigma-Aldrich). Solutions were adjusted to pH 7.2 using an FE20 pH meter (Mettler Toledo) and to 290 mOsm using a Vapro 5520 osmometer (Wescor Inc). […] For the experiment with naltriben, the intracellular solution contained 120 mM Cs-glutamate, 8 mM NaCl, 10 mM Cs-EGTA, 1.5 mM MgCl2, and 10 mM HEPES-CsOH. The intracellular solution was also adjusted to pH 7.2 and 290 mOsm. Data are presented as the mean ± SEM Unless indicated otherwise, data were compared by unpaired t-test (GraphPad Prism 8.4.0). For multiple comparisons, ordinary one-way ANOVA (GraphPad Prism 8.4.0) was used. Significance was accepted at P ≤ 0.05.
# [1] = molecular target: T2, purified TRPM7 reconstituted in lipid bilayers (Mus musculus, UniProt Q923J1); assay: Planar lipid bilayer single-channel recordings; format: biochemical; details: 2.5 μM NTB, membrane potential –100 mV, n = 3; Po without agonist 0.02 ± 0.01
# T2 construct: truncated C-terminally (the corresponding protein residues 1–1280); GFP (N); thrombin cleavage site (LVPRG) (N); made in house; host or cells: HEK 293S GnTI- cells (BacMam baculovirus made in Sf9)
# T2 sequence (Q923J1 1-1280): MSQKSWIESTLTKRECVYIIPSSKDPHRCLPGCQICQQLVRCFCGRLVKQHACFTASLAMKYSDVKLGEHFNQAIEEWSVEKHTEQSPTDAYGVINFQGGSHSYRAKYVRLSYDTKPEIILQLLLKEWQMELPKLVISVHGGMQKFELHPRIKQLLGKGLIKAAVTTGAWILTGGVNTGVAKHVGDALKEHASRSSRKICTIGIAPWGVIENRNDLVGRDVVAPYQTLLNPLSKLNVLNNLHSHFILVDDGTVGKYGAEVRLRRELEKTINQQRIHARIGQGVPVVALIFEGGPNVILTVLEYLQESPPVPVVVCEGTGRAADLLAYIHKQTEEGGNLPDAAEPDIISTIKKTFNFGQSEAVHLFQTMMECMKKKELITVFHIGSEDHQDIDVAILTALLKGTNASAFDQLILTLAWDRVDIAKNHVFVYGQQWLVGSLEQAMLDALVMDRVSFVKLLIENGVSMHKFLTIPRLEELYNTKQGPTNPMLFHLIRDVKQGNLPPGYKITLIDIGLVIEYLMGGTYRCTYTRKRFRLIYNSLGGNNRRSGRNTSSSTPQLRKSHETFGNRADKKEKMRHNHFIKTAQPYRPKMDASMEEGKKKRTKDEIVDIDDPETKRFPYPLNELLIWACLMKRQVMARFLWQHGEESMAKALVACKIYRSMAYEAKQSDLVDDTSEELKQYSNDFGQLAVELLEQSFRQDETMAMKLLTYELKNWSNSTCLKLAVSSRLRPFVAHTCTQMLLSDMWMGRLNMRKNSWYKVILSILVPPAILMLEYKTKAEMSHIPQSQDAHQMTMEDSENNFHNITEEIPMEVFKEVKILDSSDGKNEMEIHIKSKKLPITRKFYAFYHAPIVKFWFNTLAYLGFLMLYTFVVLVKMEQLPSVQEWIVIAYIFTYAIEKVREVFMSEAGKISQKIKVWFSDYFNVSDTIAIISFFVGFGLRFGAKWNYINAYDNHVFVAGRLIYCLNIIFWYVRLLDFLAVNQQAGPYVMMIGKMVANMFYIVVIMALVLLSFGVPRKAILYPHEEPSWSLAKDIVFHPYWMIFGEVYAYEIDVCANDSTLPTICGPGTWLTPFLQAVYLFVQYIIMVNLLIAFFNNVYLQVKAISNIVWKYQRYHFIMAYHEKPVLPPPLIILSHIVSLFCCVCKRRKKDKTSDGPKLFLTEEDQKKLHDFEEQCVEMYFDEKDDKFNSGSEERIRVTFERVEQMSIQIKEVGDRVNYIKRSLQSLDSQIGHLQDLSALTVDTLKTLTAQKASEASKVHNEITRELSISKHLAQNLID
# Description: Planar lipid bilayers measurements were performed as described previously. Briefly, planar lipid bilayers were formed from a 30 mM solution of synthetic lipid mix POPC:POPE:POPG at a 3:1:1 ratio (Anatrace, P516:P416:P616) in n-decane (Sigma-Aldrich). The solution was used to paint a bilayer in an aperture of ∼150 µm diameter in a Meca chip (Nanion). Each cavity in the chip contained an individual integrated Ag/AgCl-microelectrode. The bathing solution contained 150 mM KCl, 0.02 mM MgCl2, 1 µM CaCl2 and 20 mM HEPES (pH 7.2). All the reagents (Sigma-Aldrich) were ultrapure (>99%). The bilayer capacitance was in the range of 5–10 pF.
# The purified protein (10 ng/ml) was added to the bilayer-forming lipid mix (1 volume of protein to 1 volume of the lipid mix) and incubated for 30 min at 30 °C. […] Only after the incubated protein-lipid mix was added by painting, the unitary currents were recorded using an Orbit mini device (Nanion) controlled by the pCLAMP 10.2 software (Molecular Devices). Data were low-pass filtered at […] and digitized at 1.22 kHz. Single-channel conductance events, all-points histograms, and other parameters were identified and analyzed using the Clampfit 10.3 software (Molecular Devices). Only recordings with one channel incorporated into the lipid bilayer were subjected to single-channel analysis. […]
# T1 sequence (Q923J1 whole entry): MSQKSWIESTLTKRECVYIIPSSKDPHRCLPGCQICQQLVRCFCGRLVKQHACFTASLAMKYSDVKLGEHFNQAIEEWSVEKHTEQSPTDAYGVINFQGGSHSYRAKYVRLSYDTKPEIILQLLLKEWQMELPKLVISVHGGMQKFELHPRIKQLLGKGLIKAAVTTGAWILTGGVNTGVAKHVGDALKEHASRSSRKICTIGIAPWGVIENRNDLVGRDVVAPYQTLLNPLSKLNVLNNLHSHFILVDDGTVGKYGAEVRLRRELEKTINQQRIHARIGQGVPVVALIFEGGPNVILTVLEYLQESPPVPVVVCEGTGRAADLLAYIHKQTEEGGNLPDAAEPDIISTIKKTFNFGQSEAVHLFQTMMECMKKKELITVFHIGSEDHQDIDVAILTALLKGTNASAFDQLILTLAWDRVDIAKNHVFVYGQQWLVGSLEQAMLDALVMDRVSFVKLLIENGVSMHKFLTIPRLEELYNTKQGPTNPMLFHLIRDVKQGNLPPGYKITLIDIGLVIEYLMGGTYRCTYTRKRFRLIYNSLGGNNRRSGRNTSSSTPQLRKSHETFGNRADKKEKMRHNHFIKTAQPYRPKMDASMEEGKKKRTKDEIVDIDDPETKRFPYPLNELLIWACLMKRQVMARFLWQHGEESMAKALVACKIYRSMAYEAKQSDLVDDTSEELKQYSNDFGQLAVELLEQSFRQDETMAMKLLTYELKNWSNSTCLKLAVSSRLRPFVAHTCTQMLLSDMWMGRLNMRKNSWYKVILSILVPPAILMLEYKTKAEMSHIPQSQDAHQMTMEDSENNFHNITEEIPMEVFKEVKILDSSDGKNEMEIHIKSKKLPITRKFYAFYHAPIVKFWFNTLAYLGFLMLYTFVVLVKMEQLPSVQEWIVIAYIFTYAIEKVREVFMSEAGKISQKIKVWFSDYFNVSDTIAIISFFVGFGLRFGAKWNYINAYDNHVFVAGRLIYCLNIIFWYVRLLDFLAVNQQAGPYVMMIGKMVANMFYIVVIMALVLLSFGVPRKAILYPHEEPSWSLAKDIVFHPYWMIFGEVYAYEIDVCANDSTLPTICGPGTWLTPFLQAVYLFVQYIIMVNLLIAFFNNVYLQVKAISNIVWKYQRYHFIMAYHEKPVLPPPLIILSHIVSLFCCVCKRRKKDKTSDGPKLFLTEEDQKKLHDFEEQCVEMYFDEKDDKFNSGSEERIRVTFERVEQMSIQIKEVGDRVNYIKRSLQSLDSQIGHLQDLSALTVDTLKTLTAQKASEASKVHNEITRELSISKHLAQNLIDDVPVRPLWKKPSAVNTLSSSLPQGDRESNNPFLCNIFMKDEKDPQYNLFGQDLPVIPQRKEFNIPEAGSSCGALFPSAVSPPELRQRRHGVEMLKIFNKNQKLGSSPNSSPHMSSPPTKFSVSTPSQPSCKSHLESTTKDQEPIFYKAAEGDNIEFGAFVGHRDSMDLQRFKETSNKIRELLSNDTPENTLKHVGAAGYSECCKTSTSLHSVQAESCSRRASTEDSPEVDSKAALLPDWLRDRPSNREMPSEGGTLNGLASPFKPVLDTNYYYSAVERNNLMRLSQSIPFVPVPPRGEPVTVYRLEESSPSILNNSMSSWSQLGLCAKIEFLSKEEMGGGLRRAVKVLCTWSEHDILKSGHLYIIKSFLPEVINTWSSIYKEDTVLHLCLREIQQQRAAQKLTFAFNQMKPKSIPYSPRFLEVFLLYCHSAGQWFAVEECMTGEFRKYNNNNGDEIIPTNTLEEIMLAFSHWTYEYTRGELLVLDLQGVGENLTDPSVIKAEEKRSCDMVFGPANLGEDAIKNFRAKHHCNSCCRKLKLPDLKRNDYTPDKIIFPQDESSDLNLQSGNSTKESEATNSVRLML
SMILES,"amplitude of TRPM7-mediated currents in the presence of inhibitor (wild-type TRPM7; 10 µM inhibitor, 450-s exposure)","open probability, Po [1]","whole-cell currents in the presence of agonist (wild-type TRPM7; 500 μM NTB, 170-s application)"
c1ccc2c(c1)CCC[C@H]2Nc1nc2ccccc2[nH]1 [NS8593],greatly reduced,–,–
"Oc1ccc2c3c1O[C@H]1c4oc5ccccc5c4C[C@@]4(O)[C@@H](C2)N(CC2CC2)CC[C@]314 [Naltriben, naltriben]",–,0.44 ± 0.25,dramatically increased
